Source: patent EP0745083B1, “2-HETEROARYL-5,11-DIHYDRO-6H-DIPYRIDO [3,2-b:2',3'-e][1,4]DIAZEPINES AND THEIR USE IN THE PREVENTION OR TREATMENT OF HIV INFECTION” (BOEHRINGER INGELHEIM PHARMACEUTICALS INC., priority 1994, dated 1995)

How the values were obtained:
HIV-1 RT Y181C = target: T1, HIV-1 RT Y181C (Human immunodeficiency virus type 1 group M subtype B, UniProt P03367, Y780C); assay: Reverse Transcriptase (RT) Assay, Y181C mutant enzyme; assay type: biochemical, Human Immunodeficiency Virus (HIV-1); details: 1 µM compound, read-out: Reverse Transciptase Assay % inhibition (1 µM) Y181C
T1 construct: Utilization of mutant RT eraymes (Y181C and Y181L, prepared by site-directed mutagenesis); made in house
Text: Among the enzymes for which Human Immunodeficiency Virus (HIV-1) encodes is a reverse transcriptase (1), so-named because it transcribes a DNA copy from an RNA template. This activity can be quantitatively measured in a cell-free enzyme assay, which has been previously described (2), and is based upon the observation that reverse transcriptase is able to use a synthetic template [poly r(C) primed with oligo d(G)] to transcribe a radio-labelled, acid-precipitable DNA strand utilizing ^3H-dGTP as a substrate. The assay described below utilizes the wild type (WT) enzyme, which is the predominant form of the enzyme observed in patients infected with HIV-1. Utilization of mutant RT eraymes (Y181C and Y181L, prepared by site-directed mutagenesis in which the tyrosine residue at codon 181 has been replaced by a cysteine or a leucine residue, respectively) and analogous assay conditions allows compounds to be evaluated for their effectiveness at inhibiting these mutant enzymes.
The 2X concentrated stock reaction mixture is aliquoted and stored at -20°C. The mixture is stable and thawed for use in each assay. This enzyme assay has been adapted to a 96 well microtiter plate system, and has been previously described (6). Tris buffer (50 mM, pH 7.4), vehicle (solvent diluted to match the compound dilution), or compounds in vehicle are dispensed into 96-well microtiter plates (10µL/well; 3 wells/ compound). The HIV-1 RT enzyme is thawed, diluted in 50mM Tris pH 7.4 so that fifteen µL of diluted enzyme contain 0.001 Unit (one unit is that amount of enzyme to transform 1 micromole of substrate per minute at 25°C), and fifteen µL are dispensed per well. Twenty µL of 0.12-0.5M EDTA are added to the first three wells of the microtiter plate. EDTA chelates the Mg^++ present and prevents reverse transcription. This group serves as background polymerization which is subtracted from all other groups. Twenty-five ul of the 2X reaction mixture are added to all wells and the assay is allowed to incubate at room temperature for 60 minutes. The assay is terminated by precipitating the DNA in each well with 50µL of 10% trichloracetic acid (TCA) (10% w/v) in sodium pyrophosphate (1% w/v). The microtiter plate is incubated for 15 minutes at 4°C and the precipitate is fixed onto #30 glass fiber paper (Schleicher & Schuell) using a Skatron semi-automatic harvester. The filters are then washed with additional TCA (5%) containing sodium pyrophosphate (1%), rinsed with aqueous ethanol (70%), dried, and transferred to scintillation vials (6). Each vial receives 2 mL of scintillation cocktail and is counted in a Beckman beta counter. The calculation for percent inhibition is as follows: % inhibition =(CPM Mean Test Value - CPM Mean Control Value X100)/(CPM Mean Control Value) [formula]

HIV-1 RT Y188L = target: T2, HIV-1 RT Y188L (Human immunodeficiency virus type 1 group M subtype B, UniProt P03367, Y787L); assay: Reverse Transcriptase (RT) Assay, Y188L mutant enzyme; assay type: biochemical, Human Immunodeficiency Virus (HIV-1); details: 1 µM compound
T2 construct: effective against the reverse transcriptase of many mutant viruses; made in house

[1] = system: HTLV-IIIB strain of HIV-1; assay: Syncytia (human T-cell culture) assay; assay type: cell-based; details: Human immunodeficiency virus 1, IIIB, 96 h; c8166 cells; read four days after virus challenge
Experimental: In order to confirm that compounds which are active in the RT Assay also have the ability to inhibit HIV replication in a living system, compounds according to the invention were also tested in the human T-Cell Culture (Syncytia) Assay described below.
Formation of syncytia is a feature of in vitro cultures of CD4+ T-cells infected with HIV-1. In this assay, T-cells are treated with a putative replication inhibiting compound and then infected with HIV-1. After incubation, the culture is checked for the formation of syncytia. The absence or reduction in the number of syncytia is used as a measure of the test compound's ability to inhibit HIV replication.
The target cells, designated c8166, are a subclone of human lymphoma cells of T-cell origin and are established at an initial density of 5x10^4 per 100 ul in RPMI 1640 (+ 10% fetal bovine serum) culture medium in 96 well flat bottom plates. A selected amount of test compound, dissolved in DMSO, is included. After 24 hours, 50-100 TCID50's (the dose that results in induced effect in 50% of test cultures) of the HTLV-IIIB strain of HIV-1 (2) are inoculated into each culture. Control cultures receive compound or virus only. Four days after virus challenge, cultures are visually examined for the frequency and distribution of virus-induced giant cell syncytia. The percent inhibition by the test compound is determined by comparison with control values. Confirmation of the presence or absence of virus replication is accomplished by harvesting the cell free culture fluids from all experimental groups to determine the presence or absence of infectious progeny through the induction of syncytia formation in secondary human T-cell cultures after 3 days.

MTT assay (cytotoxicity) = assay type: cell-based; details: human; H9 cells; five days incubation
Experimental: In order to roughly assess the cytotoxicity of the compounds provided by the invention, several such compounds were tested in the MTT Assay described below. Compounds having a relatively high CC50 are preferred.
The MTT [3-(4,5-dimethylthiazol-2-yl)-2,5 diphenyl tetrazolium bromide) assay is based on cleavage of tetrazolium bromide by metabolically active cells, resulting in a highly quantitative blue color. This assay has been previously described (1) but has been optimized for the purposes of the testing reported herein.
The H9 cell line (2), an established human lymphoma suspension cell line grown in RPMI 1640 supplemented with 10% fetal bovine serum, is used as the target cell line in the assay. Cells (100µL) are plated in microtest plate wells at a concentration of 10^5 cells per mL in the presence of varying concentrations of inhibitor. The cells are incubated at 37°C in a humidified CO2 incubator. Five days later, 20µL of MTT (5mg/mL in RPMI 1640, sonicated, 0.2 micron filtered, and stored at 4°C) is added to each well. After 4 hours additional incubation at 37°C, 60µL of Triton-X is added to each well and thoroughly mixed to aid the solubilization of the crystals. Absolute ethanol (5µL) is added to each well and the resulting mixture is incubated for 30 minutes at 60°C and immediately read on a plate reader (Dynatech) at a wavelength of 570nm.
Data from this assay are used to generate a nonlinear regression analysis which yields an CC50.

SMILES	inhibition at 1 µM (HIV-1 RT Y181C) [%]	Reverse Transciptase Assay % inhibition (1 µM) Y188L (HIV-1 RT Y188L; 1 µM) [%]	IC50 [1] [µM]	CC50 at 120 h (MTT assay (cytotoxicity)) [µM]	Reverse Transciptase Assay % inhibition (1 µM) Y188L (HIV-1 RT Y188L) [%]
CCN1c2ncccc2C(=O)N(C)c2ccc(-c3cn[nH]c3)nc21 [Example 1, 5,11-Dihydro-11-ethyl-5-methyl-2-(4-pyrazolyl)-6H-dipyrido[3,2-b:2'3'-e][1,4]diazepin-6-one]	96	77	0.04	> 60	
CN1C(=O)c2cccnc2N(C2CC2)c2nc(-c3cn[nH]c3)ccc21 [Example 6, 5,11-Dihydro-5-methyl-11-c-propyl-2-(4-pyrazolyl)-6H-dipyrido[3,2-b:2',3'-e][1,4]diazepin-6-one]	87		0.01	> 60	84
CCN1c2ncccc2C(=O)N(C)c2ccc(-c3cc[nH]c3)nc21 [Example 12, 5,11-Dihydro-11-ethyl-5-methyl-2-(3-pyrrolyl)-6H-dipyrido[3,2-b:2',3'-e][1,4]diazepin-6-one]	91		0.04	> 50	
CN1C(=O)c2cccnc2N(C2CC2)c2nc(-c3cc[nH]c3)ccc21 [Example 25, 11-Cyclopropyl-5,11-dihydro-5-methyl-2-(3-pyrrolyl)-6H-dipyrido[3,2-b:2',3'-e][1,4]diazepin-6-one]	86		80	> 80	80
